Common to all, as to assay type: functional
The test system of test [1] is Radical scavenging activity. In words: DPPH radical scavenging activity. For orientation: DPPH is a stable violet radical that fades when it is reduced.
Test [2] concerns Radical scavenging activity. The experiment in a line: ABTS radical scavenging activity.
Test [3] concerns Radical scavenging activity. In words: Superoxide radical scavenging activity.

pIC50: −log10 of the molar value.

The values that follow come from ChEMBL document CHEMBL1146996, “Hispidin analogs from the mushroom Inonotus xeranticus and their free radical scavenging activity” (Bioorg Med Chem Lett, 2006).

In general, pIC50 refers to the negative decadic logarithm of the IC50, by convention in mol/L. A lower pIC50 goes with a high IC50. For `CC1=CC(=O)[C@H](c2c(O)cc(/C=C/c3ccc(O)c(O)c3)oc2=O)[C@@H](c2ccc(O)c(O)c2)O1` [DAVALLIALACTONE], the pIC50 in test [1] is 5.47; in test [2] it was 6.10; in test [3] it was 5.64.
As to `O=C(O)/C=C/c1ccc(O)c(O)c1` [CAFFEIC ACID], the values for the pIC50 in test [1], in test [2] and in test [3] were 4.50, 5.55 and 5.54, respectively.
For `COc1cc(/C=C/c2cc3oc(-c4ccc(O)c(O)c4)c(C(C)=O)c3c(=O)o2)ccc1O` [METHYLINOSCAVIN C] the same measures were below 4.00, 4.91 and below 4.00.
The like results for `CC(=O)c1c(-c2ccc(O)c(O)c2)oc2cc(/C=C/c3ccc(O)c(O)c3)oc(=O)c12` [INOSCAVIN C] were, in that order, below 4.00, 5.11 and below 4.00.
For `COc1cc(/C=C/c2cc(O)c([C@H]3C(=O)C=C(C)O[C@@H]3c3ccc(O)c(O)c3)c(=O)o2)ccc1O` [METHYLDAVALLIALACTONE] the same measures were 4.73, 5.82 and 5.27.
